Biological target: T1, KCNQ2/3 channels (Homo sapiens, UniProt O43525+O43526)
T1 construct: expressed in transfected cells; host or cells: CHO-K1 cells, kept under selection antibiotics
Experiment: Fluorescence assay using a voltage sensitive dye (fluorimetry)
Format: cell-based
Conditions: for KCNQ2/3 stimulation at 10 μM: Table 4 comparison experiments; for Emax at 10 µM: relative to retigabine = 100%, read-out: Fluorimetry % efficacy @ 10 μM (retigabine = 100%); for Emax at 10 µM / EC50: CHO-K1 cells expressing KCNQ2/3; for activity towards the KCNQ2/3 receptor: nitrogen atom introduced into the phenyl ring of the benzoisoxazole structure
Description: […] CHO-K1 cells expressing KCNQ2/3 channels are cultivated adherently at 37° C., 5% CO2 and 95% humidity in cell culture bottles (e.g. 80 cm^2 TC flasks, Nunc) with DMEM-high glucose (Sigma Aldrich, D7777) including 10% FCS (PAN Biotech, e.g. 3302-P270521) or alternatively MEM Alpha Medium (1×, liquid, Invitrogen, #22571), 10% fetal calf serum (FCS) (Invitrogen, #10270-106, heat-inactivated) and the necessary selection antibiotics.
Before being sown out for the measurements, the cells are washed with a 1×DPBS buffer without Ca^2+/Mg^2+ (e.g. Invitrogen, #14190-094) and detached from the bottom of the culture vessel by means of Accutase (PAA Laboratories, #L11-007) (incubation with Accutase for 15 min at 37° C.). The cell count then present is determined using a CASY™ cell counter (TCC model, Scharfe System) in order subsequently to apply, depending on the density optimization for the individual cell line, 20,000-30,000 cells/well/100 μl of the described nutrient medium to 96-well measuring plates of the Corning™ CelIBIND™ type (Flat Clear Bottom Black Polystyrene Microplates, #3340). Incubation is then carried out for one hour at room temperature, without gassing or adjusting the humidity, followed by incubation for 24 hours at 37° C., 5% CO2 and 95% humidity.
The voltage-sensitive fluorescent dye from the Membrane Potential Assay Kit (Red™ Bulk format part R8123 for FLIPR, MDS Analytical Technologies™) is prepared by dissolving the contents of a vessel Membrane Potential Assay Kit Red Component A in 200 ml of extracellular buffer (ES buffer, 120 mM NaCl, 1 mM KCl, 10 mM HEPES, 2 mM CaCl2, 2 mM MgCl2, 10 mM glucose; pH 7.4). After removal of the nutrient medium, the cells are washed with 200 μl of ES buffer, then covered with a layer of 100 μl of the dye solution prepared above and incubated for 45 min at room temperature with the exclusion of light.
The fluorescence measurements are carried out with a BMG Labtech FLUOstar™ BMG Labtech NOVOstar™ or BMG Labtech POLARstar™ instrument (525 nm excitation, 560 nm emission, Bottom Read mode). After incubation of the dye, 50 μl of the test substances in the desired concentrations, or 50 μl of ES buffer for control purposes, are introduced into separate cavities of the measuring plate and incubated for 30 min at room temperature while being shielded from light. The fluorescence intensity of the dye is then measured for 5 min and the fluorescence value F1 of each well is thus determined at a given, constant time. […] of a 100 mM KCl solution (final concentration […]) are then added to each well. The change in fluorescence is subsequently measured until all the relevant measured values have been obtained (mainly 5-30 min). At a given time after KCl application, a fluorescence value F2 is determined, in this case at the time of the fluorescence peak.
For calculation, the fluorescence intensity F2 is compared with the fluorescence intensity F1, and the agonistic activity of the target compound on the potassium channel is determined therefrom. F2 and F1 are calculated as follows: […]
Calculations of EC50 values are carried out with the aid of ‘Prism v4.0’ software (GraphPad Software™).

KCNQ2/3 stimulation at 10 μM [%] | Emax at 10 µM [%] | activity towards the KCNQ2/3 receptor | EC50 [nM] | SMILES
65 | 65 | still present |  | FC(F)(F)Sc1ccc(CNc2noc3cnccc23)cc1 [Exemplary compound 6, N-(4-(trifluoromethylthio)benzyl)-isoxazolo[5,4-c]pyridin-3-amine]
 | 49 |  |  | Cc1ccc2c(NCc3ccc(SC(F)(F)F)cc3)noc2n1 [Exemplary compound 20, 6-methyl-N-(4-(trifluoromethylthio)benzyl)-isoxazolo[5,4-b]pyridin-3-amine]
 | 41 |  |  | FC(F)(F)Sc1ccc(CNc2noc3nc(C(F)(F)F)ccc23)cc1 [Exemplary compound 19, N-(4-(trifluoromethylthio)benzyl)-6-trifluoromethyl-isoxazolo[5,4-b]pyridin-3-amine]
 | 19 |  |  | FC(F)(F)Sc1ccc(CNc2noc3ccnc(Cl)c23)cc1 [Exemplary compound 25, 4-chloro-N-(4-(trifluoromethylthio)benzyl)-isoxazolo[4,5-c]pyridin-3-amine]
 | 38 |  | 411 | FC(F)(F)Sc1ccc(CNc2noc3nc4ccccc4cc23)cc1 [Exemplary compound 24, N-(4-(trifluoromethylthio)benzyl)-isoxazolo[5,4-b]quinolin-3-amine]
 | 97 |  |  | CC(Nc1noc2ncccc12)c1ccc(SC(F)(F)F)cc1 (stereo not drawn) [Exemplary compound 5, N-(1-(4-(trifluoromethylthio)phenyl)ethyl)-isoxazolo[5,4-b]pyridin-3-amine]
86 | 86 | still present |  | FC(F)(F)Sc1ccc(CNc2noc3cccnc23)cc1 [Exemplary compound 9, N-(4-(trifluoromethylthio)benzyl)-isoxazolo[4,5-b]pyridin-3-amine]
75 |  |  |  | FC(F)(F)Sc1ccc(CNc2noc3ccccc23)cc1 [E1, reference compound]
 | 27 |  |  | FC(F)(F)Sc1ccc(CNc2noc3c(C(F)(F)F)nccc23)cc1 [Exemplary compound 23, N-(4-(trifluoromethylthio)benzyl)-7-trifluoromethyl-isoxazolo[5,4-c]pyridin-3-amine]
39 | 39 | still present |  | FC(F)(F)Sc1ccc(CNc2noc3ccncc23)cc1 [Exemplary compound 12, N-(4-(trifluoromethylthio)benzyl)-isoxazolo[4,5-c]pyridin-3-amine]
77 | 77 | still present | 1690 | FC(F)(F)Sc1ccc(CNc2noc3ncccc23)cc1 [Exemplary compound 2, N-(4-(Trifluoromethylthio)benzyl)-isoxazolo[5,4-b]pyridin-3-amine]
 | 50 |  |  | CC(Nc1noc2cccnc12)c1ccc(SC(F)(F)F)cc1 (stereo not drawn) [Exemplary compound 13, N-(1-(4-(trifluoromethylthio)phenyl)-ethyl)isoxazolo[4,5-b]pyridin-3-amine]

The remaining lines, values behind:

SMILES | KCNQ2/3 stimulation at 10 μM [%] | Emax at 10 µM [%] | activity towards the KCNQ2/3 receptor | EC50 [nM]
Cc1cc(C)cc(C(C)Nc2noc3cccnc23)c1 (stereo not drawn) [Exemplary compound 10, N-(1-(3,5-dimethyl-phenyl)ethyl)-isoxazolo[4,5-b]pyridin-3-amine] |  | 27 |  | 
Cc1cc(C)cc(C(C)Nc2noc3cnccc23)c1 (stereo not drawn) [Exemplary compound 15, N-(1-(3,5-dimethyl-phenyl)ethyl)-isoxazolo[5,4-c]pyridin-3-amine] |  | 73 |  | 
CC(Nc1noc2cnccc12)c1ccc(C(F)(F)F)cc1 (stereo not drawn) [Exemplary compound 14, N-(1-(4-(trifluoromethyl)phenyl)-ethyl)isoxazolo[5,4-c]pyridin-3-amine] |  | 78 |  | 
Cc1cc(C)cc(CNc2noc3ncccc23)c1 [Exemplary compound 3, N-(3,5-dimethyl-benzyl)isoxazolo[5,4-b]pyridin-3-amine] |  | 34 |  | 
CC(Nc1noc2ccncc12)c1ccc(SC(F)(F)F)cc1 (stereo not drawn) [Exemplary compound 17, N-(1-(4-(trifluoromethylthio)phenyl)ethyl)-isoxazolo[4,5-c]pyridin-3-amine] |  | 49 |  | 899
Cc1cc(C)cc(C(C)Nc2noc3nc(C(F)(F)F)ccc23)c1 (stereo not drawn) [Exemplary compound 18, N-(1-(3,5-dimethylphenyl)ethyl)-6-(trifluoromethyl)isoxazolo[5,4-b]-pyridin-3-amine] |  | 43 |  | 
Cc1cc(C)cc(C(C)Nc2noc3ncccc23)c1 (stereo not drawn) [Exemplary compound 4, N-(1-(3,5-dimethyl-phenyl)ethyl)-isoxazolo[5,4-b]pyridin-3-amine] |  | 65 |  | 
Cc1cc(C)cc(CNc2noc3cnccc23)c1 [Exemplary compound 7, N-(3,5-dimethyl-benzyl)isoxazolo[5,4-c]pyridin-3-amine] |  | 29 |  | 
Cc1cc(C)cc(C(C)Nc2noc3c(C(F)(F)F)nccc23)c1 (stereo not drawn) [Exemplary compound 21, N-(1-(3,5-dimethyl-phenyl)ethyl)-7-trifluoromethyl-isoxazolo[5,4-c]pyridin-3-amine] |  | 39 |  | 
Cc1cc(C)cc(C(C)Nc2noc3ccncc23)c1 (stereo not drawn) [Exemplary compound 16, N-(1-(3,5-dimethyl-phenyl)ethyl)-isoxazolo[4,5-c]pyridin-3-amine] |  | 15 |  | 
CC(Nc1noc2ncccc12)c1ccc(C(F)(F)F)cc1 (stereo not drawn) [Exemplary compound 1, N-(1-(4-(trifluoromethyl)phenyl)ethyl)-isoxazolo[5,4-b]pyridin-3-amine] |  | 43 |  | 
Cc1cc(C)cc(C(C)Nc2noc3nc(C)ccc23)c1 (stereo not drawn) [Exemplary compound 22, N-(1-(3,5-dimethylphenyl)ethyl)-6-methyl-isoxazolo[5,4-b]pyridin-3-amine] |  | 49 |  | 231

— patent US20100234419A1, “SUBSTITUTED 3-AMINOISOXAZOLOPYRIDINES AS KCNQ2/3 MODULATORS” (GRUNENTHAL GMBH, priority 2009, published 2010)
